According to US7041810B2, “Alpha-2 adrenergic receptor polymorphisms” (University Of Cincinnati, priority 2000, dated 2006):
Where a chain is given by its changes, count along the chain named.

How the values were obtained:
Lys251 alpha-2AAR [1] = target: T1, Lys251 alpha-2AAR (Homo sapiens, UniProt P08913, N266K); test: [35S]GTPγS binding, membranes of COS-7 cells coexpressing Giα2; assay type: biochemical; design: expressed in transfected cells; membranes or intact cells; conditions: 10 μM agonist
T1 sequence (P08913 16-465 N266K): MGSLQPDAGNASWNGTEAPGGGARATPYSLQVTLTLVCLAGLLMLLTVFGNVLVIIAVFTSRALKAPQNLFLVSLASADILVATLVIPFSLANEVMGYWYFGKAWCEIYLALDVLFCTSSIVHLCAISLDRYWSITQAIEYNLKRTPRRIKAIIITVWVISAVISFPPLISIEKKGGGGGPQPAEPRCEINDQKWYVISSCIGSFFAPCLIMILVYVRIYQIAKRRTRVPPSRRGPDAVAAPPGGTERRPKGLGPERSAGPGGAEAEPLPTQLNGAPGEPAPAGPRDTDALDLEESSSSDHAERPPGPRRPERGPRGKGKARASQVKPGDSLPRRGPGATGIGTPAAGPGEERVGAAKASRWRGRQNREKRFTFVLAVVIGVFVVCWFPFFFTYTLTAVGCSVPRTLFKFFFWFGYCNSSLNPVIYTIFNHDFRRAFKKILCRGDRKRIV
Description: Receptor-G protein interaction was quantitated by [^35S] radiolabeled guanosine-5′-O-(3-thiotriphosphate) ([^35S]GTPγS) binding in COS-7 cells transiently transfected with each alpha-2AAR construct and Giα2. […] Nonspecific binding was measured in the presence of 10 μM GTPγS.

wild-type alpha-2BAR [2] = target: T2, wild-type alpha-2BAR (Homo sapiens, UniProt P18089); test: Inhibition of forskolin stimulated adenylyl cyclase and desensitization, CHO membranes; assay type: biochemical; design: The human receptor consists of 450 amino acids; expressed in transfected cells
T2 sequence (P18089 1-450): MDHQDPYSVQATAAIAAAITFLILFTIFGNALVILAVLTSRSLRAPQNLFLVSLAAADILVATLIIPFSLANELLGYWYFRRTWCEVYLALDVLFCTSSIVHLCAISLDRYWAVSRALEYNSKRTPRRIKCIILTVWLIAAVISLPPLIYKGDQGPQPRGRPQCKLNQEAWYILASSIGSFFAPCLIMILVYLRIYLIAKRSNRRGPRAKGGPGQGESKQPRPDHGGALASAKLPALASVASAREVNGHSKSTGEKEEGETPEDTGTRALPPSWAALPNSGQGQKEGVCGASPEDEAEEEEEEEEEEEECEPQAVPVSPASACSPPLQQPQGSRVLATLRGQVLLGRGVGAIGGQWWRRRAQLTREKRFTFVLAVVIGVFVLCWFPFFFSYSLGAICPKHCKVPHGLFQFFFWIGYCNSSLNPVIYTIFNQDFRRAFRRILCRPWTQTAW
Description: For desensitization experiments, cells were pretreated for 30 min at 37° with media alone or with media containing 10 μM norepinephrine, placed on ice, and washed five times with cold PBS prior to membrane preparation. Desensitization of alpha-2BAR is manifested by a shift to the right in the dose-response curve for the inhibition of adenylyl cyclase (i.e., increase in EC50) without a significant change in the maximal response (17-19). To quantitate the magnitude of this desensitization, the inhibitory response under control conditions at a submaximal concentration of agonist (the EC50) in the assay was determined from the curve and compared to the response to this same concentration from membranes derived from cells exposed to norepinephrine. This method has been previously validated (26) in several G protein coupled receptor systems.

Lys251 alpha-2AAR [3] = target: T1, Lys251 alpha-2AAR
Description: (§1) Alpha-2AAR inhibition of adenylyl cyclase was determined in membrane preparations from CHO cells stably expressing the two receptors using methods similar to those previously described (18). […] Reactions were terminated by the addition of a stop solution containing excess ATP and cAMP and ˜100,000 dpm of [^3H]cAMP. Labeled cAMP was isolated by gravity chromatography over alumina columns with [^3H]cAMP used to quantitate column recovery. […] Results are expressed as percent inhibition of forskolin stimulated activity.

[4] = target: T3, wild-type Asn251 alpha-2AAR (Homo sapiens, UniProt P08913); conditions: 5.0 μM forskolin, no agonist
T3 sequence (P08913 16-465): T1 sequence (P08913 16-465 N266K) with K251N
Description: as §1

wild-type alpha-2BAR [5] = target: T2, wild-type alpha-2BAR; conditions: read-out: [125I]-aminoclonidine saturation binding KD
wild-type alpha-2CAR [6] = target: T4, wild-type alpha-2CAR (Homo sapiens, UniProt P18825, L239R/R446P/S401I); test: Inhibition of forskolin stimulated adenylyl cyclase, CHO membranes; assay type: biochemical; design: expressed in transfected cells; membranes or intact cells; conditions: lower expressing line 565±69 fmol/mg
T4 sequence (P18825 1-462 L239R/S401I/R446P): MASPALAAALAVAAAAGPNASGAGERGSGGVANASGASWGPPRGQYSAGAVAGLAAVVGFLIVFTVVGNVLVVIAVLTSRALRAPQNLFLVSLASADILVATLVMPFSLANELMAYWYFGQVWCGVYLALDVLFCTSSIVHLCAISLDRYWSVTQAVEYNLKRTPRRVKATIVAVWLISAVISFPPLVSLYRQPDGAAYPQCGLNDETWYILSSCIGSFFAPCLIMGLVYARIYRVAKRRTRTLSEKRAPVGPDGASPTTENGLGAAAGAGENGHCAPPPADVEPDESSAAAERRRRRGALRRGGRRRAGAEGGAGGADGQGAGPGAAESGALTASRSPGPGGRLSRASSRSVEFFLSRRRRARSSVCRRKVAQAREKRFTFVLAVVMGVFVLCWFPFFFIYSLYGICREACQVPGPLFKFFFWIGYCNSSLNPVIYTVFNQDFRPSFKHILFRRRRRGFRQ
Description: (§2) Reactions were terminated by the addition of a stop solution containing excess ATP and cAMP and ˜100,000 dpm of [^3H]cAMP. Labeled cAMP was isolated by gravity chromatography over alumina columns with [^3H]cAMP used to quantitate column recovery. […] Results are expressed as percent inhibition of forskolin stimulated activity.

wild-type alpha-2CAR [7] = target: T4, wild-type alpha-2CAR; conditions: 10 μM epinephrine, 5 min; 806±140 fmol/mg
wild-type alpha-2CAR [8] = target: T4, wild-type alpha-2CAR; conditions: 10 μM epinephrine; thrombin 1 unit/ml
wild-type alpha-2CAR [9] = target: T5, wild-type alpha-2CAR (Homo sapiens, UniProt P18825); test: Inhibition of forskolin stimulated adenylyl cyclase, CHO membranes; assay type: biochemical
T5 construct: expressed in transfected cells; membranes or intact cells
T5 sequence (P18825 1-462 L239R/S401I/R446P): T4 sequence (P18825 1-462 L239R/S401I/R446P)
Description: as §2

CCN1CCc2nc(N)oc2CC1 [BHT-933]
enhanced [35S]GTPγS binding for Lys251 as compared to the Asn251 receptor (Lys251 alpha-2AAR [1]): 45%

C=C[C@@]1(C)CC(=O)[C@]2(O)[C@@]3(C)[C@@H](O)CCC(C)(C)[C@@H]3[C@H](O)[C@H](OC(C)=O)[C@@]2(C)O1 [Forskolin, forskolin]
Forskolin adenylyl cyclase activity (wild-type alpha-2BAR [2]; forskolin 5 μM, no agonist): 15.1 ± 0.9 pmol/min/mg | Forskolin adenylyl cyclase activity (Lys251 alpha-2AAR [3]; 5.0 μM forskolin, no agonist): 31.6 ± 6.5 pmol/min/mg | Forskolin adenylyl cyclase activity [4]: 32.7 ± 4.0 pmol/min/mg

Brc1c(NC2=NCCN2)ccc2nccnc12 [UK 14304]
enhanced [35S]GTPγS binding for Lys251 as compared to the Asn251 receptor (Lys251 alpha-2AAR [1]): ~40%

Nc1cc(Cl)c(NC2=NCCN2)c(Cl)c1I [[^125I]-aminoclonidine, aminoclonidine]
Kd (wild-type alpha-2BAR [5]): 1.33 ± 0.12 nM

CNC[C@H](O)c1ccc(O)c(O)c1 [epinephrine]
inhibition of adenylyl cyclase (wild-type alpha-2CAR [6]): 73±2.4% | accumulation of inositol phosphates over basal (wild-type alpha-2CAR [7]): 30±3% | MAP kinase stimulation as a percent of the thrombin response (wild-type alpha-2CAR [8]): 128±10.0%

N=C(N)N/N=C/c1c(Cl)cccc1Cl [guanabenz]
enhanced [35S]GTPγS binding for Lys251 as compared to the Asn251 receptor (Lys251 alpha-2AAR [1]): 72%

NC[C@H](O)c1ccc(O)c(O)c1 [norepinephrine]
enhanced [35S]GTPγS binding for Lys251 as compared to the Asn251 receptor (Lys251 alpha-2AAR [1]): ~40% | EC50 (wild-type alpha-2BAR [2]): 7.9 ± 2.1 nM | Max Inhibition (%) of forskolin stimulated adenylyl cyclase (wild-type alpha-2BAR [2]; 626±54 fmol/mg): 28.5 ± 1.6% | Desensitization (%) (wild-type alpha-2BAR [2]; after 10 μM norepinephrine 30 min): ~54% | Submax inhibition (%) Ctrl (wild-type alpha-2BAR [2]; agonist at the EC50 of control membranes, cells pretreated with media alone): 16.5 ± 3.9% | Submax inhibition (%) NE (wild-type alpha-2BAR [2]; same agonist concentration, cells pretreated with 10 μM norepinephrine 30 min): 7.6 ± 2.3 % | EC50 (wild-type alpha-2CAR [9]): 219 ± 13.7 nM

Cc1cc(C(C)(C)C)c(O)c(C)c1CC1=NCCN1 [oxymetazoline]
augmented function of Lys251 compared to the Asn251 receptor (Lys251 alpha-2AAR [3]; adenylyl cyclase inhibition): ~40%
